Patent publication US10407446B2, “Amino-triazolopyridine compounds and their use in treating cancer” (AstraZeneca AB, priority 2016, dated 2019)
Where two headings read alike, the source gives them in different places.

Key:
[1] = molecular target: JAK1 (Homo sapiens (Human), UniProt P23458); assay: JAK1 enzyme assay (Z'-LYTE); assay type: biochemical; conditions: 75 μM ATP; mean of at least 2 experiments; read-out: JAK1 enz pIC50 (converted)
Method: (§1) d) Aurora-A, Aurora-B, JAK1, JAK2, JAK3 Enzyme Assays
(§2) The inhibitory activity of compounds against AURKA, AURKB, JAK1, JAK2 and JAK3 was determined in Z′-LYTE® assays run by ThermoFisher Scientific as part of their SelectScreen® Biochemical Kinase Profiling Service. The Z′-LYTE® biochemical assay format employs a fluorescence-based, coupled-enzyme format and is based on the differential sensitivity of phosphorylated and non-phosphorylated peptides to proteolytic cleavage. The peptide substrate is labeled with two fluorophores—one at each end—that make up a FRET pair. In the primary reaction, the kinase transfers the gamma-phosphate of ATP to a single tyrosine, serine or threonine residue in a synthetic FRET-peptide. In the secondary reaction, a site-specific protease recognises and cleaves non-phosphorylated FRET-peptides. Phosphorylation of FRET-peptides suppresses cleavage by the Development Reagent. Cleavage disrupts FRET between the donor (i.e., coumarin) and acceptor (i.e., fluorescein) fluorophores on the FRET-peptide, whereas uncleaved, phosphorylated FRET-peptides maintain FRET. A ratiometric method, which calculates the ratio (the Emission Ratio) of donor emission to acceptor emission after excitation of the donor fluorophore at 400 nm, is used to quantitate reaction progress. Both cleaved and uncleaved FRET-peptides contribute to the fluorescence signals and therefore to the Emission Ratio. The extent of phosphorylation of the FRET-peptide can be calculated from the Emission Ratio.
(§3) 2.4 μL Kinase Buffer (50 mM HEPES pH 7.5, 0.01% BRIJ-35, 10 mM MgCl2, 1 mM EGTA), 5 μL 2× Peptide/Kinase mixture (detailed below for each kinase) and 2.5 μL 4× ATP Solution (prepared in Kinase Buffer) were added separately to the compound plates, placed on a plate shaker for 30 sec, and then incubated for 60 mins at room temperature. […] Assay plates were placed on a plate shaker for 30 sec, incubated for 60 mins at room temperature, and then read using a fluorescence plate reader.

[2] = molecular target: JAK3 (Homo sapiens (Human), UniProt P52333); assay: JAK3 enzyme assay (Z'-LYTE); assay type: biochemical; conditions: 10 μM ATP; mean of at least 2 experiments; read-out: JAK3 enz pIC50 (converted)
Chain of JAK3 (P52333 whole entry): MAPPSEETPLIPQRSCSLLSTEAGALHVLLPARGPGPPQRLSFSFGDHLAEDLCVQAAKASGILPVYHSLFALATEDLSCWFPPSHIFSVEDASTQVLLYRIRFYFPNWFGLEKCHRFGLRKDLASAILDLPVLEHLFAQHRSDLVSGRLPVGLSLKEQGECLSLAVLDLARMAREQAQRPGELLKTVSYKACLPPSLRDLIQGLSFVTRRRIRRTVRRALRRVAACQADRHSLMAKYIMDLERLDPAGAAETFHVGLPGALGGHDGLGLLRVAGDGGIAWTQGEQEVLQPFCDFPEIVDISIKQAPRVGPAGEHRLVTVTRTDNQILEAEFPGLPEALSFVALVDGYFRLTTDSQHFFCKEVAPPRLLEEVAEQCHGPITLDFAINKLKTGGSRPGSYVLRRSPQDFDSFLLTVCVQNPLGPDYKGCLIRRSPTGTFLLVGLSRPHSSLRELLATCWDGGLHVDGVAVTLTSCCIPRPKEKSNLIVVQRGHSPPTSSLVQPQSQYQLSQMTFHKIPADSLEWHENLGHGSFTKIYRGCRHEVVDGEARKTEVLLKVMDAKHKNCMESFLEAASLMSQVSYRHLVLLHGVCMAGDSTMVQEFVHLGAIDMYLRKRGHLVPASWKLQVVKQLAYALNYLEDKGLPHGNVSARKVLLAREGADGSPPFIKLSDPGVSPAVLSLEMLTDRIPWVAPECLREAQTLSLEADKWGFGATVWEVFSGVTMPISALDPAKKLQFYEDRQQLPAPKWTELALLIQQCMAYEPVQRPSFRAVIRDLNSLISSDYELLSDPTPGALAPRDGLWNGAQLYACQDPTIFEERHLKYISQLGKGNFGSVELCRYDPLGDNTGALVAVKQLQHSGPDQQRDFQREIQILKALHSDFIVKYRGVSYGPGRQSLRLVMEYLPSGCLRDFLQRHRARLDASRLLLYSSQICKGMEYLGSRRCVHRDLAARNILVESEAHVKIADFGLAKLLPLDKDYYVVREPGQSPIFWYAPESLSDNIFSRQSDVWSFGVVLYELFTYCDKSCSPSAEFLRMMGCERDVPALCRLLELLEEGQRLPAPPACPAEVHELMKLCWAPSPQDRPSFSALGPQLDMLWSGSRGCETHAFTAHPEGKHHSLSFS
Text: The 2× AURKB (Aurora B)/Ser/[…]

[3] = molecular target: AURKA (Aurora A) (Homo sapiens (Human), UniProt O14965); assay: Aurora-A enzyme assay (Z'-LYTE); assay type: biochemical; conditions: 10 μM ATP; mean of at least 2 experiments; read-out: AurA enz pIC50 (converted)
Chain of AURKA (Aurora A) (O14965 whole entry): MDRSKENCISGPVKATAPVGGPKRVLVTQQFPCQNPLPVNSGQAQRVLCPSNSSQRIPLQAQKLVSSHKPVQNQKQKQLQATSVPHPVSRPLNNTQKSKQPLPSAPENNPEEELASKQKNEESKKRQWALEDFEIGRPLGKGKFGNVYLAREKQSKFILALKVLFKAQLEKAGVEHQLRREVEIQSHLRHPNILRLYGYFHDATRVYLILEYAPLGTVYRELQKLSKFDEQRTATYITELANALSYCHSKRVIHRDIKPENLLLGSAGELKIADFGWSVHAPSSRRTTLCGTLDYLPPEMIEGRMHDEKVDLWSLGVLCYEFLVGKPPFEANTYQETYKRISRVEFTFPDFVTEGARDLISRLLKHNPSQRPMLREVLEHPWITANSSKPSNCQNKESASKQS
Method: as §1, §2, §3

[4] = molecular target: JAK2 (Homo sapiens (Human), UniProt O60674); assay: JAK2 enzyme assay (Z'-LYTE); assay type: biochemical; conditions: 25 μM ATP; mean of at least 2 experiments; read-out: JAK2 enz pIC50 (converted)
Chain of JAK2 (O60674 whole entry): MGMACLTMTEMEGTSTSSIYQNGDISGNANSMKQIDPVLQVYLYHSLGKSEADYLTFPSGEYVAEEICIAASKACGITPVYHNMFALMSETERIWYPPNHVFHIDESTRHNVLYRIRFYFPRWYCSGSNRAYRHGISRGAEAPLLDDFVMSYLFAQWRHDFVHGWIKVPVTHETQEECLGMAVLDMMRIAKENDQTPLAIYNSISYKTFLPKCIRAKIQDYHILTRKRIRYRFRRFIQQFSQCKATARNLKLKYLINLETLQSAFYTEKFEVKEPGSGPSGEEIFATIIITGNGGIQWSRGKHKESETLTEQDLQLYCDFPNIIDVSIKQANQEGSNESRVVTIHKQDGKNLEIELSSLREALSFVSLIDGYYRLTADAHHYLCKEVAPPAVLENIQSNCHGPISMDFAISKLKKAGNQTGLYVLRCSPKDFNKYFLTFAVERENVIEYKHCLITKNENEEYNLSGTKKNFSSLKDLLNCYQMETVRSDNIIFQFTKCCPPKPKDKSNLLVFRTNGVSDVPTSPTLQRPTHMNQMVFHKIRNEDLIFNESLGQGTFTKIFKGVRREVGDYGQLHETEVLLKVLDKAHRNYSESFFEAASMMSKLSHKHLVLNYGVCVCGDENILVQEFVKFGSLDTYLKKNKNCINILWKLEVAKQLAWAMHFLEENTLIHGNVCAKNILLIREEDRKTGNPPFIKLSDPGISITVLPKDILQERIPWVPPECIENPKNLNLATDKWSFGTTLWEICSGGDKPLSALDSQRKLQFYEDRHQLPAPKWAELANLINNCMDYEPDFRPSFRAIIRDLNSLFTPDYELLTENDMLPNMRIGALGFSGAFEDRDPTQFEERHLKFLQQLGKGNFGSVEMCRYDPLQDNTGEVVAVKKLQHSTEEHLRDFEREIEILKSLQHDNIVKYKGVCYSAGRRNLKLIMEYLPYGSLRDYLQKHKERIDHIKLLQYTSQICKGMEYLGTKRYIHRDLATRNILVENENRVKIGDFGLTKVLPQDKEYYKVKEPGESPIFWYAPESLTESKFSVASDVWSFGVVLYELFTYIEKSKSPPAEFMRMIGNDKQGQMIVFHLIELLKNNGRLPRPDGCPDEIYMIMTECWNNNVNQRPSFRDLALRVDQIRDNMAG
Method: as §1, §2, §3

[5] = molecular target: AURKB (Aurora B) (Homo sapiens (Human), UniProt Q96GD4); assay: Aurora-B enzyme assay (Z'-LYTE); assay type: biochemical; conditions: 75 μM ATP; mean of at least 2 experiments; read-out: AurB enz pIC50 (converted)
Chain of AURKB (Aurora B) (Q96GD4 whole entry): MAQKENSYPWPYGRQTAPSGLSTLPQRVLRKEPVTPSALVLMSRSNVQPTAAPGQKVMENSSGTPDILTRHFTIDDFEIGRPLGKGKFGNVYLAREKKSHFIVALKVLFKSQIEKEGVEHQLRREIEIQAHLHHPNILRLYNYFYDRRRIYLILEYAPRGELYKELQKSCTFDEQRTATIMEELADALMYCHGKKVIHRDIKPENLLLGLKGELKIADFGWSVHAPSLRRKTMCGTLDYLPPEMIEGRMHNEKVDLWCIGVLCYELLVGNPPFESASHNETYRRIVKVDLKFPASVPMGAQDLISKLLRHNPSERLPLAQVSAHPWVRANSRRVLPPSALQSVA
Method: as §1, §2, §3

[6] = molecular target: TTK (Homo sapiens (Human), UniProt P33981); assay: TTK enzyme assay (LanthaScreen Eu Kinase Binding assay); conditions: mean of at least 2 experiments
Chain of TTK (P33981 whole entry): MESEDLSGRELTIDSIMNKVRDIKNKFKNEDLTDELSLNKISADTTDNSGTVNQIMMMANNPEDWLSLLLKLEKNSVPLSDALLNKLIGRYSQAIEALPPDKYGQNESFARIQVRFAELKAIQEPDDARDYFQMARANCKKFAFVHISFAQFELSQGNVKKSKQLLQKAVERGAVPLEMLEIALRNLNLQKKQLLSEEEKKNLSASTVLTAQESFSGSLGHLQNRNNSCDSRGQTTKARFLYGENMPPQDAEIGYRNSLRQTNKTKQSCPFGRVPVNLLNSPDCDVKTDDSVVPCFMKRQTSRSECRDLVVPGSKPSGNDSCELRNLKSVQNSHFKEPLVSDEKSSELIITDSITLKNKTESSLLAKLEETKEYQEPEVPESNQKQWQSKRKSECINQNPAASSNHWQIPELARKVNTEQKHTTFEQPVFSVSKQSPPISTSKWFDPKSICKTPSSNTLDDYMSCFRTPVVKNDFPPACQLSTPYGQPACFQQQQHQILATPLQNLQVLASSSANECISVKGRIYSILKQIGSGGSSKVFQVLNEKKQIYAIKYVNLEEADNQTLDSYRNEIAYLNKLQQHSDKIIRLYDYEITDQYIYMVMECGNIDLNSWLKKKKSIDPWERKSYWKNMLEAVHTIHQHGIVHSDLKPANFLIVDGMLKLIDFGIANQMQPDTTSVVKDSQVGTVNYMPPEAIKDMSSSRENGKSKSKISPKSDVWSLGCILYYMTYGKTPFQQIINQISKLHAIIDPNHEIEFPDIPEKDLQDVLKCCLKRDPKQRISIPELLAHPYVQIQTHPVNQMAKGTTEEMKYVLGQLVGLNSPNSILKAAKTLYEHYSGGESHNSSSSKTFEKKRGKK
Text: The LanthaScreen® Eu Kinase Binding assay format uses binding of an Alexa Fluor® conjugate or “tracer” to a kinase, which is detected by addition of a Eu-labeled anti-tag antibody. […] The degree of FRET measured in the assay is used to determine the binding of a compound.
Plates were then read using a fluorescence plate reader.

[7] = molecular target: T1, DNAPK (Homo sapiens (Human), UniProt P78527); assay: DNAPK cellular potency assay (DNA-PK cell), pS2056-DNAPK ELISA in irradiated A549 cells; assay type: cell-based; conditions: A549 cell line, 8 Gy radiation, mean of at least 2 experiments, read-out: DNA-PK cell pIC50 (converted)
[8] = molecular target: T1, DNAPK; assay type: biochemical; conditions: mean of at least 2 experiments; 18 μM ATP; read-out: DNA-PK enz pIC50 (converted)
Text: The following assays were used to measure the effects of the compounds described herein: a) DNAPK enzyme potency assay; b) DNAPK cellular potency assay. During the description of the assays, generally: • i. The following abbreviations have been used; DMSO=Dimethyl Sulphoxide; DTT=Dithiothreitol; EDTA=Ethylenediaminetetraacetic Acid, TR-FRET=Time Resolved Fluorescence Resonance Energy Transfer, ATP=Adenosine triphosphate, DTT=Dithiothreitol, DNA=Deoxyribonucleic acid, HEPES=(2-hydroxyethyl)-1-piperazineethanesulfonic acid • ii.

Chain of JAK1 (P23458 whole entry): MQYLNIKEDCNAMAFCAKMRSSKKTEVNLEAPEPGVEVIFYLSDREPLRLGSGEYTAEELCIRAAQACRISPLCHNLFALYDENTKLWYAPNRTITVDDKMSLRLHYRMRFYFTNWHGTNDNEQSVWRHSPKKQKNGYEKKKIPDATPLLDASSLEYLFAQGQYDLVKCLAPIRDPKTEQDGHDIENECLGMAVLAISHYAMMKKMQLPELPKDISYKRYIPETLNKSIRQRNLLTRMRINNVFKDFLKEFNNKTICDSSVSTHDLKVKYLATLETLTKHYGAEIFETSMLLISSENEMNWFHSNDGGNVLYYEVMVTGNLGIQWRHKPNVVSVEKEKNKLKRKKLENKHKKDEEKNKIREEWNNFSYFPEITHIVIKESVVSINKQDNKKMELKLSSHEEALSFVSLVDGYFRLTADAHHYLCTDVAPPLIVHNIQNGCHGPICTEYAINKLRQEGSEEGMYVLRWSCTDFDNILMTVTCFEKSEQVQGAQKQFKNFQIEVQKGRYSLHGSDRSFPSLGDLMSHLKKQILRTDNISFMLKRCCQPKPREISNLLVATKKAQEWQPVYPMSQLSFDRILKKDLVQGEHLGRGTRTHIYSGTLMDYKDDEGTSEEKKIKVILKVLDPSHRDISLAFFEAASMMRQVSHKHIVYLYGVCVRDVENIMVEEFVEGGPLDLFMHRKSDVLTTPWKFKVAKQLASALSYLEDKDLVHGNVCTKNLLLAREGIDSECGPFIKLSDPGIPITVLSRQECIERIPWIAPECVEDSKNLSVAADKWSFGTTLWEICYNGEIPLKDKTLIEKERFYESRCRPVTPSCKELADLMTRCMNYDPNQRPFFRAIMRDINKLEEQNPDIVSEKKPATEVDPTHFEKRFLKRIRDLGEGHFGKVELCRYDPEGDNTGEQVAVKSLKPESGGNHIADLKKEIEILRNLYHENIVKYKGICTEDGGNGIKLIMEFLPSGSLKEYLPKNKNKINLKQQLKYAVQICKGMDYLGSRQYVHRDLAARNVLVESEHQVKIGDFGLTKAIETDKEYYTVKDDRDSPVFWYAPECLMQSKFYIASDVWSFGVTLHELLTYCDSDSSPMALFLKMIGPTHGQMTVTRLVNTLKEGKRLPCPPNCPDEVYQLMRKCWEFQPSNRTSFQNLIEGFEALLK

SMILES	IC50 [1] [µM]	IC50 [2] [µM]	IC50 [3] [µM]	IC50 [4] [µM]	IC50 [5] [µM]	TTK enz pIC50 [6]	IC50 ([6]; read-out: TTK enz pIC50 (converted)) [µM]	IC50 [7] [µM]	IC50 [8] [µM]
Cc1cc2ncnn2cc1Nc1ncc2c(n1)n([C@H]1CC[C@@](C)(O)CC1)c(=O)n2C [Example 10, 9-((1s,4s)-4-hydroxy-4-methylcyclohexyl)-7-methyl-2-((7-methyl-[1,2,4]triazolo[1,5-a]pyridin-6-yl)amino)-7,9-dihydro-8H-purin-8-one]	> 10	> 10	> 10	> 10	> 10				
Cc1cc2ncnn2cc1Nc1ncc2c(n1)n(C1CCCCC1)c(=O)n2C [Example 13, 9-cyclohexyl-7-methyl-2-((7-methyl-[1,2,4]triazolo[1,5-a]pyridin-6-yl)amino)-7,9-dihydro-8H-purin-8-one]	> 10	> 10	3.98	> 10	> 10	6.3			
Cc1cc2ncnn2cc1Nc1ncc2c(n1)n([C@H]1CCOC1)c(=O)n2C [Example 11, (S)-7-methyl-2-((7-methyl-[1,2,4]triazolo[1,5-a]pyridin-6-yl)amino)-9-(tetrahydrofuran-3-yl)-7,9-dihydro-8H-purin-8-one]	> 10	> 10	> 10	> 10	> 10		> 7.94	0.158	0.000501
Cc1cc2ncnn2cc1Nc1ncc2c(n1)n([C@@H]1CCCOC1)c(=O)n2C [Example 8, (R)-7-methyl-2-((7-methyl-[1,2,4]triazolo[1,5-a]pyridin-6-yl)amino)-9-(tetrahydro-2H-pyran-3-yl)-7,9-dihydro-8H-purin-8-one]	> 10	> 10	> 10	> 10	> 10	5.2		0.0631	0.000398
CO[C@H]1CC[C@H](n2c(=O)n(C)c3cnc(Nc4cn5ncnc5cc4C)nc32)CC1 [Example 6, 9-((1r,4r)-methoxycyclohexyl)-7-methyl-2-((7-methyl-[1,2,4]triazolo[1,5-a]pyridin-6-yl)amino)-7,9-dihydro-8H-purin-8-one]	> 10	> 10	> 10	> 10	> 10	5.9		0.0398	0.000251
Cc1cc2ncnn2cc1Nc1ncc2c(n1)n([C@H]1CC[C@@H](O)CC1)c(=O)n2C [Example 2, 9-((1s,4s)-4-hydroxycyclohexyl)-7-methyl-2-((7-methyl-[1,2,4]triazolo[1,5-a]pyridin-6-yl)amino)-7,9-dihydro-8H-purin-8-one]	> 10	> 10	> 10	> 10	> 10	6.1			
Cc1cc2ncnn2cc1Nc1ncc2c(n1)n([C@H]1CCCOC1)c(=O)n2C [Example 7, (S)-7-methyl-2-((7-methyl-[1,2,4]triazolo[1,5-a]pyridin-6-yl)amino)-9-(tetrahydro-2H-pyran-3-yl)-7,9-dihydro-8H-purin-8-one]	> 10	> 10	> 10	> 10	> 10	5.2		0.0501	0.000158
Cc1cc2ncnn2cc1Nc1ncc2c(n1)n([C@H]1CC[C@H](O)CC1)c(=O)n2C [Example 1, 9-((1r,4r)-4-hydroxycyclohexyl)-7-methyl-2-((7-methyl-[1,2,4]triazolo[1,5-a]pyridin-6-yl)amino)-7,9-dihydro-8H-purin-8-one]	> 10	> 10	> 10	> 10	> 10	5.5			
Cc1cc2ncnn2cc1Nc1ncc2c(n1)n(C1CCOCC1)c(=O)n2C [Example 3, 7-methyl-2-((7-methyl-[1,2,4]triazolo[1,5-a]pyridin-6-yl)amino)-9-(tetrahydro-2H-pyran-4-yl)-7,9-dihydro-8H-purin-8-one]	> 10	> 10	> 10	> 10	> 10				
Cc1nc2cc(C)c(Nc3ncc4c(n3)n(C3CCOCC3)c(=O)n4C)cn2n1 [Example 4, 2-((2,7-dimethyl-[1,2,4]triazolo[1,5-a]pyridin-6-yl)amino)-7-methyl-9-(tetrahydro-2H-pyran-4-yl)-7,9-dihydro-8H-purin-8-one]	> 10	> 10	> 10	> 10	> 10	5.1		0.158	0.00126
Cc1cc2ncnn2cc1Nc1ncc2c(n1)n([C@]1(C)CC[C@H](O)CC1)c(=O)n2C [Example 12, 9-((1s,4s)-4-hydroxy-1-methylcyclohexyl)-7-methyl-2-((7-methyl-[1,2,4]triazolo[1,5-a]pyridin-6-yl)amino)-7,9-dihydro-8H-purin-8-one]	> 10	> 10	> 10	> 10	> 10	5.8		0.0398	0.0002
CO[C@H]1CC[C@@H](n2c(=O)n(C)c3cnc(Nc4cn5ncnc5cc4C)nc32)CC1 [Example 5, 9-((1s,4s)-4-methoxycyclohexyl)-7-methyl-2-((7-methyl-[1,2,4]triazolo[1,5-a]pyridin-6-yl)amino)-7,9-dihydro-8H-purin-8-one]	> 10	> 10	> 10	> 10	> 10	5.3		0.126	0.001
Cc1cc2ncnn2cc1Nc1ncc2c(n1)n([C@H]1CC[C@](C)(O)CC1)c(=O)n2C [Example 9, 9-((1r,4r)-4-hydroxy-4-methylcyclohexyl)-7-methyl-2-((7-methyl-[1,2,4]triazolo[1,5-a]pyridin-6-yl)amino)-7,9-dihydro-8H-purin-8-one]	> 10	> 10	> 10	> 10	> 10				
